What was measured:
[1] = molecular target: T1, Aldo-keto reductase family 1 member B1 (Homo sapiens, UniProt P15121); experiment: ChEBML_157077
From the text: Inhibition of human placental aldose reductase (HPAR) activity with glyceraldehyde as substrate

[2] = molecular target: T1, Aldo-keto reductase family 1 member B1; experiment: Compound was evaluated for inhibition of human placental aldose reductase (HPAR) activity with glyceraldehyde as substrate

SMILES | IC50 [1] | IC50 [2]
CS(=O)(=O)c1c(Cl)cc(Cl)cc1-c1[nH]c(=O)[nH]c1O | 610 nM | –
C[S+]([O-])c1ccc(Cl)cc1-c1[nH]c(=O)[nH]c1O (configuration not stated) | – | 250 nM
CS(=O)(=O)c1ccc(F)cc1-c1[nH]c(=O)[nH]c1O | 610 nM | –
CS(=O)(=O)c1ccc(Cl)cc1-c1[nH]c(=O)[nH]c1O | – | 50 nM
CCCNS(=O)(=O)c1ccc(Cl)cc1-c1[nH]c(=O)[nH]c1O | 580 nM | –
Cc1cc(Cl)cc(-c2[nH]c(=O)[nH]c2O)c1S(C)(=O)=O | 270 nM | –
CS(=O)(=O)c1c(-c2[nH]c(=O)[nH]c2O)cc(Cl)cc1C(F)(F)F | 580 nM | –

The remaining lines, values ahead:

IC50 [1] | IC50 [2] | SMILES
230 nM | – | O=c1[nH]c(O)c(-c2cc(Cl)ccc2S(=O)(=O)Nc2ccc(F)cc2)[nH]1
270 nM | – | O=c1[nH]c(O)c(-c2cc(Cl)ccc2S(=O)(=O)Cc2ccc(Cl)cc2)[nH]1
230 nM | – | CCCCCCS(=O)(=O)c1ccc(Cl)cc1-c1[nH]c(=O)[nH]c1O
250 nM | – | CCCS(=O)(=O)c1ccc(Cl)cc1-c1[nH]c(=O)[nH]c1O
50 nM | – | CCCCCS(=O)(=O)c1ccc(Cl)cc1-c1[nH]c(=O)[nH]c1O

From BindingDB's records for doi:10.1021/jm00126a011 (Pfizer, 1989)
